{
  "source": "patent US12071423B2",
  "about": "“Processes and intermediate for the large-scale preparation of 2,4,6-trifluoro-N-[6-(1-methyl-piperidine-4-carbonyl)-pyridin-2-yl]-benzamide hemisuccinate, and preparation of 2,4,6-trifluoro-N-[6-(1-methyl-piperidine-4-carbonyl)-pyridin-2-yl]-benzamide acetate” (Eli Lilly and Company, priority 2019, dated 2024)",
  "format_in_all_cases": "physicochemical",
  "key": {"[1]": {"test": "Solubility in 10 mmol acetate, citrate or phosphate buffer (excess solid equilibrated at RT overnight, HPLC)", "procedure": "Lasmiditan acetate was discovered to enable a desired dose target of about 50 mg in the minimal volume of less than or equal to about 1 mL, while at the same time achieving a desired target pH being close to neutral, and in addition being relatively isotonic and physically and chemically stable. […] For solubility determinations 10 mmol buffer is made with a respective acid and salt, and pH is adjusted by changing the acid/salt ratio. Excess solid is equilibrated at RT overnight, and solution concentration is analyzed by HPLC and solid was characterized by XRPD. In contrast, for lasmiditan acetate it was discovered that solubility of >50 mg/mL can be achieved, at close to neutral pH, without adjusting the pH."}, "[2]": {"test": "Form and chemical stability studies of the intermediate", "text": "[drawing 6] which can be named as (6-amino-2-pyridyl)-(1-methyl-4-piperidyl)methanone dihydrate dihydrochloride. Preferably this compound is crystalline. (6-amino-2-pyridyl)-(1-methyl-4-piperidyl)methanone dihydrate dihydrochloride is particularly useful in the preparation of 2,4,6-trifluoro-N-[6-(1-methylpiperidine-4-carbonyl)-2-pyridyl]benzamide hemisuccinate, and processes which employ (6-amino-2-pyridyl)-(1-methyl-4-piperidyl)methanone dihydrate dihydrochloride may provide advantageous process characteristics, including but not limited to the purity of intermediate and/or final materials. (6-amino-2-pyridyl)-(1-methyl-4-piperidyl)methanone dihydrate dihydrochloride is believed to be a new stable hydrated form of 6-amino-2-pyridyl)-(1-methyl-4-piperidyl)methanone. The process to isolate (6-amino-2-pyridyl)-(1-methyl-4-piperidyl)methanone dihydrate dihydrochloride described herein provides improved impurity rejection and an improved controlled crystallization process. […] Use of this intermediate provides advantageously high purity product at expected yield."}, "[3]": {"test": "Dissolution of lasmiditan acetate at 50 mg/mL: pH and tonicity of the solution", "details": "dissolution at 50 mg/mL", "procedure": "(§1) Lasmiditan acetate enables the desired solubility to provide high concentration formulations having a less than or equal to about 1 mL dose volume, for the desired unit doses, which is critical for clinical applications such as use in available autoinjector devices. In addition, dissolution of lasmiditan acetate at 50 mg/mL results in close to neutral pH (pH approximately 6.8), is isotonic, and stable for at least 2 months."}, "[4]": {"test": "Stability of lasmiditan acetate 50 mg/mL solution", "details": "dissolution at 50 mg/mL", "procedure": "as §1"}},
  "note": "Structures can show the parent of a compound that is named as a salt. Where two headings read alike, the source gives them in different places.",
  "data": [
    {"molecule": "CN1CCC(C(=O)c2cccc(NC(=O)c3c(F)cc(F)cc3F)n2)CC1", "note": "[lasmiditan hemisuccinate, 2,4,6-trifluoro-N-[6-(1-methylpiperidine-4-carbonyl)-2-pyridyl]benzamide hemisuccinate, reference compound]", "values": [
      {"measurement": "achieving >50 mg/mL solubility", "setting": "[1]; at close to neutral pH", "value": "difficult without using co-solvents"}
    ]},
    {"molecule": "CN1CCC(C(=O)c2cccc(N)n2)CC1", "note": "[(6-amino-2-pyridyl)-(1-methyl-4-piperidyl)methanone dihydrate dihydrochloride]", "values": [
      {"measurement": "form and chemical stability", "setting": "[2]", "value": "generally stable"}
    ]},
    {"molecule": "CC(=O)O.CN1CCC(C(=O)c2cccc(NC(=O)c3c(F)cc(F)cc3F)n2)CC1", "note": "[Lasmiditan Acetate, 2,4,6-trifluoro-N-[6-(1-methylpiperidine-4-carbonyl)-2-pyridyl]benzamide acetate]", "values": [
      {"measurement": "pH on dissolution", "setting": "[3]", "value": "approximately 6.8"},
      {"measurement": "tonicity of solution", "setting": "[3]", "value": "isotonic"},
      {"measurement": "solubility compared with lasmiditan hemisuccinate salt", "setting": "[1]", "value": "significantly higher solubility"},
      {"measurement": "solubility", "setting": "[1]; 10 mmol acetate buffer, pH 3.69, aqueous buffer, thermodynamic from solid, Acetate buffer, pH (before) 3.69, free base eq., all added solute went into solution, read-out: Solubility (Free Base eq. mg/mL)", "value": "> 441", "unit": "mg/mL"},
      {"measurement": "solubility", "setting": "[1]; 10 mmol acetate buffer, pH 4.05, aqueous buffer, thermodynamic from solid, Acetate buffer, pH (before) 4.05, free base eq., all added solute went into solution, read-out: Solubility (Free Base eq. mg/mL)", "value": "> 430", "unit": "mg/mL"},
      {"measurement": "solubility", "setting": "[1]; 10 mmol acetate buffer, pH 4.4, aqueous buffer, thermodynamic from solid, Acetate buffer, pH (before) 4.4, free base eq., all added solute went into solution, read-out: Solubility (Free Base eq. mg/mL)", "value": "> 412", "unit": "mg/mL"},
      {"measurement": "solubility", "setting": "[1]; 10 mmol acetate buffer, pH 5.09, aqueous buffer, thermodynamic from solid, Acetate buffer, pH (before) 5.09, free base eq., all added solute went into solution, read-out: Solubility (Free Base eq. mg/mL)", "value": "> 430", "unit": "mg/mL"},
      {"measurement": "solubility", "setting": "[1]; 10 mmol acetate buffer, pH 5.71, aqueous buffer, thermodynamic from solid, Acetate buffer, pH (before) 5.71, free base eq., all added solute went into solution, read-out: Solubility (Free Base eq. mg/mL)", "value": "> 486", "unit": "mg/mL"},
      {"measurement": "solubility", "setting": "[1]; 10 mmol buffer (acetate, citrate or phosphate), pH 6.8, thermodynamic from solid, at close to neutral pH, without adjusting the pH, read-out: solubility", "value": "> 50", "unit": "mg/mL"},
      {"measurement": "solubility", "setting": "[1]; 10 mmol citrate buffer, pH 2.5, aqueous buffer, thermodynamic from solid, Citrate buffer, pH (before) 2.5, free base eq., all added solute went into solution, read-out: Solubility (Free Base eq. mg/mL)", "value": "> 300", "unit": "mg/mL"},
      {"measurement": "solubility", "setting": "[1]; 10 mmol citrate buffer, pH 3.84, aqueous buffer, thermodynamic from solid, Citrate buffer, pH (before) 3.84, free base eq., all added solute went into solution, read-out: Solubility (Free Base eq. mg/mL)", "value": "> 300", "unit": "mg/mL"},
      {"measurement": "solubility", "setting": "[1]; 10 mmol citrate buffer, pH 4.99, aqueous buffer, thermodynamic from solid, Citrate buffer, pH (before) 4.99, free base eq., all added solute went into solution, read-out: Solubility (Free Base eq. mg/mL)", "value": "> 300", "unit": "mg/mL"},
      {"measurement": "solubility", "setting": "[1]; 10 mmol citrate buffer, pH 5.96, aqueous buffer, thermodynamic from solid, Citrate buffer, pH (before) 5.96, free base eq., all added solute went into solution, read-out: Solubility (Free Base eq. mg/mL)", "value": "> 300", "unit": "mg/mL"},
      {"measurement": "solubility", "setting": "[1]; 10 mmol phosphate buffer, pH 8.24, aqueous buffer, thermodynamic from solid, Phosphate buffer, pH (before) 8.24, free base eq., all added solute went into solution, read-out: Solubility (Free Base eq. mg/mL)", "value": "> 300", "unit": "mg/mL"},
      {"measurement": "pH (after)", "setting": "[1]; Acetate buffer, pH (before) 3.69", "value": 6.25},
      {"measurement": "pH (after)", "setting": "[1]; Acetate buffer, pH (before) 4.05", "value": 6.41},
      {"measurement": "pH (after)", "setting": "[1]; Acetate buffer, pH (before) 4.4", "value": 6.31},
      {"measurement": "pH (after)", "setting": "[1]; Acetate buffer, pH (before) 5.09", "value": 6.50},
      {"measurement": "pH (after)", "setting": "[1]; Acetate buffer, pH (before) 5.71", "value": 6.56},
      {"measurement": "pH (after)", "setting": "[1]; Citrate buffer, pH (before) 2.5", "value": 5.60},
      {"measurement": "pH (after)", "setting": "[1]; Citrate buffer, pH (before) 3.84", "value": 5.72},
      {"measurement": "pH (after)", "setting": "[1]; Citrate buffer, pH (before) 4.99", "value": 6.23},
      {"measurement": "pH (after)", "setting": "[1]; Citrate buffer, pH (before) 5.96", "value": 6.24},
      {"measurement": "pH (after)", "setting": "[1]; Phosphate buffer, pH (before) 8.24", "value": 6.42},
      {"measurement": "stability of solution", "setting": "[4]", "value": "at least 2 months"}
    ]}
  ]
}
